Data: patent US20250179088A9 (ZYMEWORKS BC INC., priority 2020, published 2025)

What was measured:
TLR8 = biological target: T1, TLR8 (Homo sapiens, UniProt Q9NR97); assay: Reporter gene assay, HEK-Blue TLR8 reporter cells (SEAP)
T1 sequence (Q9NR97 27-1041): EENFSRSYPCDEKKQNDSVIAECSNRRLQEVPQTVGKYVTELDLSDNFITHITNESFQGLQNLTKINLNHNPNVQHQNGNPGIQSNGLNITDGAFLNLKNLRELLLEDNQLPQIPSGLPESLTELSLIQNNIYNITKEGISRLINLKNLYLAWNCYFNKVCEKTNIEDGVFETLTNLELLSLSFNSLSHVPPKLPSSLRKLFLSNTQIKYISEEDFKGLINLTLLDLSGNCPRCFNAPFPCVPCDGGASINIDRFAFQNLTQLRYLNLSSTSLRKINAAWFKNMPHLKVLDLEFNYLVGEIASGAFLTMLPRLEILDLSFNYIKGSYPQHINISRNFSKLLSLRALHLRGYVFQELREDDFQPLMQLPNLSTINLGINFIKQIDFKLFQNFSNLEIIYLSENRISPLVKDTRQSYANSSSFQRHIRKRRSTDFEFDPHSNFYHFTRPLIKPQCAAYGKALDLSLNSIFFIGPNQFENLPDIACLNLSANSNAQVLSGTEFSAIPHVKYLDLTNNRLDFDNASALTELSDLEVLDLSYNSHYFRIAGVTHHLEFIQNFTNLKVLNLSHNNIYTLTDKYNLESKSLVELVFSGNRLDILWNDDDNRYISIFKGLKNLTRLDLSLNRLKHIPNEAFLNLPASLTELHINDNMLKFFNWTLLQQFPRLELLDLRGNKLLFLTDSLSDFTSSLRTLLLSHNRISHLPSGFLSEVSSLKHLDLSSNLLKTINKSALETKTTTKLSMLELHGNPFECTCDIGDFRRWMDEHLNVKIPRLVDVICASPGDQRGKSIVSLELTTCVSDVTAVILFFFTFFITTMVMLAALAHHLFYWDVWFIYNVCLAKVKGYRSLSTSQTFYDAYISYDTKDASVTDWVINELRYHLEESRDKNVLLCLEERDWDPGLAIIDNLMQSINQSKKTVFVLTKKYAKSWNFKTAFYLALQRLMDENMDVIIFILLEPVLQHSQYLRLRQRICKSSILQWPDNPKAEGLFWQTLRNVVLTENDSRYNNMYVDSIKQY
Procedure: (§1) 3×10^4 HEK-Blue™ TLR7 or 3×10^4 TLR8 reporter cells (InvivoGen, San Diego, CA) were treated with titrated (4-fold) amounts of test compound. […] Cells were incubated overnight at 37° C. and 5% CO2, then absorbance (620 and 655 nm) was read on a Synergy™ H1 microplate reader.

TLR7 = biological target: T2, TLR7 (Homo sapiens, UniProt Q9NYK1); assay: Reporter gene assay, HEK-Blue TLR7 reporter cells (SEAP)
T2 sequence (Q9NYK1 27-1049): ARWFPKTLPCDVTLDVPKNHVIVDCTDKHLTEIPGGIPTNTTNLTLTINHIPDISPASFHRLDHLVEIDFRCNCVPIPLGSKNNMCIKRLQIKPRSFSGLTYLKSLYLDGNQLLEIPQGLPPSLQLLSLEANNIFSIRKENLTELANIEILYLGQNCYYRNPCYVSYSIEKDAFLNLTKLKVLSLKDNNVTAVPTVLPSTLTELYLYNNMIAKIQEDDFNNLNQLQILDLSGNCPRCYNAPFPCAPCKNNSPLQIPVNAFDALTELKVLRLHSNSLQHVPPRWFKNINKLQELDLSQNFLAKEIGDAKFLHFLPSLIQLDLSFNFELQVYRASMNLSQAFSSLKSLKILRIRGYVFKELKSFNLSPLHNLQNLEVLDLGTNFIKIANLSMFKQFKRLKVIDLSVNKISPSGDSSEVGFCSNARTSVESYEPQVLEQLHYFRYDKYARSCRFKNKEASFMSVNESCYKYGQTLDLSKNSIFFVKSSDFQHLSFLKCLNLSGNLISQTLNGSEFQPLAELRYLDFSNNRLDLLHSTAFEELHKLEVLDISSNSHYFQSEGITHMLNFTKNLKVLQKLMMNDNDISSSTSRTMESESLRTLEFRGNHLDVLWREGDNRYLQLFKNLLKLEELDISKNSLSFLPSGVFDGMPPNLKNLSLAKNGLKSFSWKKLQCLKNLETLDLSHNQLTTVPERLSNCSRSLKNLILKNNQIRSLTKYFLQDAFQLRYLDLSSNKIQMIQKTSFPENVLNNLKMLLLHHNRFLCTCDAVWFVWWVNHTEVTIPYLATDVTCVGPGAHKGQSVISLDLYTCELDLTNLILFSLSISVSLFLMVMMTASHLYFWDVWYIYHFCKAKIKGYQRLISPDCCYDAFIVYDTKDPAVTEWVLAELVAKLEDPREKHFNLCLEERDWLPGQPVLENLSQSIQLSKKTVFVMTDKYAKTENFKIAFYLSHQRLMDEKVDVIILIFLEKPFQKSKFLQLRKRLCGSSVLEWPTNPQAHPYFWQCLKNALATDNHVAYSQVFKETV
Procedure: as §1

PBMCs = assay: PBMC assay, IL-6 release (HTRF); type: cell-based; settings: PBMCs from healthy donors, overnight, IL-6 induction by HTRF, average of quadruplicate
Procedure: Whole peripheral blood was obtained from healthy donors. PBMCs were isolated from peripheral blood by density gradient centrifugation. […] The plasma layer containing PBMCs was poured into a new tube and washed twice. Isolated PBMCs were either used fresh or thawed from previously frozen. 1×10^5 PBMCs were cultured with titrating concentrations of compounds of Formula I overnight followed by assaying for cytokines by homogeneous time resolved fluorescence (HTRF).

CCCCc1nc2c(N)nc3ccsc3c2n1Cc1ccc(CN[C@H](CO)[C@@H](C)CC)cc1 [Compound 296, (2S,3S)-2-((4-((4-amino-2-butyl-1H-imidazo[4,5-d]thieno[3,2-b]pyridin-1-yl)methyl)benzyl)amino)-3-methylpentan-1-ol]
EC50 (TLR8): 134 nM | EC50 (TLR7): < 1 nM

CCCCc1nc2c(N)nc3ccsc3c2n1Cc1ccc(CNCC2CCN(C(=O)OC(C)(C)C)CC2)cc1 [Compound 264, tert-butyl 4-(((4-((4-amino-2-butyl-1H-imidazo[4,5-d]thieno[3,2-b]pyridin-1-yl)methyl)benzyl)amino)methyl)piperidine-1-carboxylate]
EC50 (TLR8): > 1000 nM | EC50 (TLR7): 83 nM | EC50 (PBMCs): 153 nM

CCCCc1nc2c(N)nc3ccsc3c2n1Cc1ccc(CN[C@H](C(=O)O)[C@@H](C)CC)cc1 [Compound 297, (4-((4-amino-2-butyl-1H-imidazo[4,5-d]thieno[3,2-b]pyridin-1-yl)methyl)benzyl)-L-isoleucine]
EC50 (TLR8): > 1000 nM | EC50 (TLR7): 676 nM

CCCCc1nc2c(N)nc3ccsc3c2n1Cc1cccc(CO)c1 [Compound 207, (3-((4-amino-2-butyl-1H-imidazo[4,5-d]thieno[3,2-b]pyridin-1-yl)methyl)phenyl)methanol]
EC50 (TLR8): > 1000 nM | EC50 (TLR7): 480 nM | EC50 (PBMCs): > 1000 nM

CCCCc1nc2c(N)nc3ccsc3c2n1Cc1cccc(CNCC(C)(C)N2CCOCC2)c1 [Compound 202, 2-butyl-1-(3-(((2-methyl-2-morpholinopropyl)amino)methyl)benzyl)-1H-imidazo[4,5-d]thieno[3,2-b]pyridin-4-amine]
EC50 (TLR8): 950 nM | EC50 (TLR7): 330 nM | EC50 (PBMCs): 750 nM

CCCCc1nc2c(N)nc3ccsc3c2n1Cc1cccc(CN2CCNCC2)c1 [Compound 214, 2-butyl-1-(3-(piperazin-1-ylmethyl)benzyl)-1H-imidazo[4,5-d]thieno[3,2-b]pyridin-4-amine]
EC50 (TLR8): > 1000 nM | EC50 (TLR7): 63 nM | EC50 (PBMCs): 750 nM

CCOCc1nc2c(N)nc3ccsc3c2n1Cc1ccc(CN[C@H](CO)[C@@H](C)CC)cc1 [Compound 292, (2S,3S)-2-((4-((4-amino-2-(ethoxymethyl)-1H-imidazo[4,5-d]thieno[3,2-b]pyridin-1-yl)methyl)benzyl)amino)-3-methylpentan-1-ol]
EC50 (TLR8): 674 nM | EC50 (TLR7): 3 nM

CCCCc1nc2c(N)nc3ccsc3c2n1Cc1ccc(CNCCC(=O)N[C@@H](Cc2cnc[nH]2)C(=O)O)cc1 [Compound 301, (3-((4-((4-amino-2-butyl-1H-imidazo[4,5-d]thieno[3,2-b]pyridin-1-yl)methyl)benzyl)amino)propanoyl)-L-histidine]
EC50 (TLR8): > 1000 nM | EC50 (TLR7): 348 nM

CCOCc1nc2c(N)nc3ccsc3c2n1Cc1ccc(CN(CC)CC)cc1 [Compound 290, 1-(4-((diethylamino)methyl)benzyl)-2-(ethoxymethyl)-1H-imidazo[4,5-d]thieno[3,2-b]pyridin-4-amine]
EC50 (TLR8): 1030 nM | EC50 (TLR7): 4 nM

CCCCc1nc2c(N)nc3ccsc3c2n1Cc1ccc(CN[C@H](C(=O)O)[C@@H](C)O)cc1 [Compound 298, (4-((4-amino-2-butyl-1H-imidazo[4,5-d]thieno[3,2-b]pyridin-1-yl)methyl)benzyl)-L-threonine]
EC50 (TLR8): > 1000 nM | EC50 (TLR7): 159 nM

CCCCc1nc2c(N)nc3ccsc3c2n1Cc1ccc(C[n+]2ccccc2)cc1 [Compound 279, 1-(4-((4-amino-2-butyl-1H-imidazo[4,5-d]thieno[3,2-b]pyridin-1-yl)methyl)benzyl) pyridin-1-ium]
EC50 (TLR8): > 1000 nM | EC50 (TLR7): < 1 nM

CCCCc1nc2c(N)nc3ccsc3c2n1Cc1ccc(CNc2nnc[nH]2)cc1 [Compound 272, 1-(4-(((4H-1,2,4-triazol-3-yl)amino)methyl)benzyl)-2-butyl-1H-imidazo[4,5-d]thieno [3,2-b]pyridin-4-amine]
EC50 (TLR8): > 1000 nM | EC50 (TLR7): 33 nM

CCCCc1nc2c(N)nc3ccsc3c2n1Cc1ccc(CN(CCC)CCC)cc1 [Compound 277, 2-butyl-1-(4-((dipropylamino)methyl)benzyl)-1H-imidazo[4,5-d]thieno[3,2-b]pyridin-4-amine]
EC50 (TLR8): 404 nM | EC50 (TLR7): < 1 nM

CCOCc1nc2c(N)nc3ccsc3c2n1Cc1ccc(CNC2CC(F)(F)C2)cc1 [Compound 291, 1-(4-(((3,3-difluorocyclobutyl)amino)methyl)benzyl)-2-(ethoxymethyl)-1H-imidazo[4,5-d]thieno[3,2-b]pyridin-4-amine]
EC50 (TLR8): 1130 nM | EC50 (TLR7): 14 nM

CCCCc1nc2c(N)nc3ccsc3c2n1Cc1ccc(C[N+]23CCN(CC2)CC3)cc1 [Compound 295, 1-(4-((4-amino-2-butyl-1H-imidazo[4,5-d]thieno[3,2-b]pyridin-1-yl)methyl)benzyl)-1,4-diazabicyclo[2.2.2]octan-1-ium]
EC50 (TLR8): > 1000 nM | EC50 (TLR7): > 1000 nM

CCCCc1nc2c(N)nc3ccsc3c2n1Cc1ccc(CN2CCC[C@H]2C(=O)O)cc1 [Compound 300, (4-((4-amino-2-butyl-1H-imidazo[4,5-d]thieno[3,2-b]pyridin-1-yl)methyl)benzyl)-L-proline]
EC50 (TLR8): > 1000 nM | EC50 (TLR7): > 1000 nM

CCOCc1nc2c(N)nc3ccsc3c2n1Cc1ccc(CNCc2cc[nH]c2)cc1 [Compound 293, 1-(4-((((1H-pyrrol-3-yl)methyl)amino)methyl)benzyl)-2-(ethoxymethyl)-1H-imidazo [4,5-d]thieno[3,2-b]pyridin-4-amine]
EC50 (TLR8): > 1000 nM | EC50 (TLR7): 7 nM

CCCCc1nc2c(N)nc3ccsc3c2n1Cc1ccc(CN(CC(=O)O)CC(=O)O)cc1 [Compound 299, 2,2′-((4-((4-amino-2-butyl-1H-imidazo[4,5-d]thieno[3,2-b]pyridin-1-yl)methyl)benzyl)azanediyl)diacetic acid]
EC50 (TLR8): > 1000 nM | EC50 (TLR7): 446 nM

CCOCc1nc2c(N)nc3ccsc3c2n1Cc1ccc(CN2CCNCC2)cc1 [Compound 289, 2-(ethoxymethyl)-1-(4-(piperazin-1-ylmethyl)benzyl)-1H-imidazo[4,5-d]thieno[3,2-b]pyridin-4-amine]
EC50 (TLR8): > 1000 nM | EC50 (TLR7): 9 nM

CCCCc1nc2c(N)nc3ccsc3c2n1Cc1ccc(CNCCCC[C@H](N)C(=O)O)cc1 [Compound 305, N^6-(4-((4-amino-2-butyl-1H-imidazo[4,5-d]thieno[3,2-b]pyridin-1-yl)methyl)benzyl)-L-lysine]
EC50 (TLR8): > 1000 nM | EC50 (TLR7): 108 nM

CCCCc1nc2c(N)nc3ccsc3c2n1Cc1ccc(CN2CCN(CCc3ccccn3)CC2)cc1 [Compound 275, 2-butyl-1-(4-((4-(2-(pyridin-2-yl)ethyl)piperazin-1-yl)methyl)benzyl)-1H-imidazo[4,5-d]thieno[3,2-b]pyridin-4-amine]
EC50 (TLR8): > 1000 nM | EC50 (TLR7): > 1000 nM
